Assay results: ChEMBL document CHEMBL1147725, “Identification and biological characterization of 6-aryl-7-isopropylquinazolinones as novel TRPV1 antagonists that are effective in models of chronic pain” (J Med Chem, 2006)

What was measured:
[1] = molecular target: T1, Transient receptor potential cation channel subfamily V member 1 (Homo sapiens, UniProt Q8NER1); assay: Inhibition of calcium influx evoked by capsaicin in human TRPV1 expressing cells by fluorescence assay; assay type: functional
[2] = molecular target: T2, Transient receptor potential cation channel subfamily V member 1 (Rattus norvegicus, UniProt O35433); assay: Inhibition of low pH activation of rat TRPV1; assay type: functional
[3] = molecular target: T2, Transient receptor potential cation channel subfamily V member 1; assay: Inhibition of calcium influx evoked by capsaicin in rat TRPV1 expressing cells by fluorescence assay; assay type: functional, cell-based
[4] = molecular target: T1, Transient receptor potential cation channel subfamily V member 1; assay: Inhibition of low pH activation of human TRPV1; assay type: functional

T1 sequence (Q8NER1 whole entry): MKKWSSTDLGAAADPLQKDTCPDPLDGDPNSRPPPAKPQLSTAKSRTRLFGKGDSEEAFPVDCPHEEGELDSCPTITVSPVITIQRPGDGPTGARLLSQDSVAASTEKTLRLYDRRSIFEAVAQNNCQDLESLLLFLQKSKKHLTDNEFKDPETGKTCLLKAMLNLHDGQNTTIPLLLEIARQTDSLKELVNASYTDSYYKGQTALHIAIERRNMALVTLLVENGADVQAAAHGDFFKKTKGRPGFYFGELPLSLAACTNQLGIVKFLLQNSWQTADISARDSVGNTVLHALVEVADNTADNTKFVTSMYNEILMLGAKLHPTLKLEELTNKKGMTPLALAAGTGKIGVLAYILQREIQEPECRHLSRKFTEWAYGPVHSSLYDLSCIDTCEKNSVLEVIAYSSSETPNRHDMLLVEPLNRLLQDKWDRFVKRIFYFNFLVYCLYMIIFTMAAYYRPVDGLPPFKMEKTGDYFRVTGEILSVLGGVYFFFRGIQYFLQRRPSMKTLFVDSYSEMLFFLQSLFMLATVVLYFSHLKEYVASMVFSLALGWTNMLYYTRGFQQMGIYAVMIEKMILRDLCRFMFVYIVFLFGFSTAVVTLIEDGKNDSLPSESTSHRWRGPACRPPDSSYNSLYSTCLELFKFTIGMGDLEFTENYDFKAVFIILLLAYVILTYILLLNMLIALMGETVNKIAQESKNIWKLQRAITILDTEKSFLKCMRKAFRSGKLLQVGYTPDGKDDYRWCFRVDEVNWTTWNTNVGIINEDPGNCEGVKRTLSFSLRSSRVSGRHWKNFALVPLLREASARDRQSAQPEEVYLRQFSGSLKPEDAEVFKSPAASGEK
T2 sequence (O35433 whole entry): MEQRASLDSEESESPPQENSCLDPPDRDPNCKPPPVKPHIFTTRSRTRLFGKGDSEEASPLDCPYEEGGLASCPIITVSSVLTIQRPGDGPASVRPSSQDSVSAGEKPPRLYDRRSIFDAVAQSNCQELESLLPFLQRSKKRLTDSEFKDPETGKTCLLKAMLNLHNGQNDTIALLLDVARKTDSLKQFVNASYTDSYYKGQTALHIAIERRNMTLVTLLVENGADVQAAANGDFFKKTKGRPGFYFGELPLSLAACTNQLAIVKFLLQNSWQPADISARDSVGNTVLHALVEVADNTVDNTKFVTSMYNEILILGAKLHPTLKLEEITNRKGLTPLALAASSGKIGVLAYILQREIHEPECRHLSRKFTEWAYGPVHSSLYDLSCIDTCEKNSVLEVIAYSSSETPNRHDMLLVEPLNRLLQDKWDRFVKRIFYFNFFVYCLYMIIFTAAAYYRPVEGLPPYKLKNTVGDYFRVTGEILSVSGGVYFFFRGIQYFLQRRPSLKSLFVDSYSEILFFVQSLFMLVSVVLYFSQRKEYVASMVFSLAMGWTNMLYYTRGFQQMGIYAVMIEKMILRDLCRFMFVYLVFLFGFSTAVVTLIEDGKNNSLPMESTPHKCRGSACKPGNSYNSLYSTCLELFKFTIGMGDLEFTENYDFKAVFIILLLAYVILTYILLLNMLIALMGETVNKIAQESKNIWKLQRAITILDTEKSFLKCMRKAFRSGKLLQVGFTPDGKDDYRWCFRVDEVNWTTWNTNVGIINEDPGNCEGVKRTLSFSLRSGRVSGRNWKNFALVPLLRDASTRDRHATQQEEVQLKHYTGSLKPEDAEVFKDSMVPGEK

| IC50 [1] [nM] | IC50 [2] [nM] | IC50 [3] [nM] | IC50 [4] [nM] | SMILES |
| --- | --- | --- | --- | --- |
| 334 | – | – | – | Oc1cc2c(cc1O)CN(C(=S)NCCc1ccc(Cl)cc1)CCC2 [CAPSAZEPINE] |
| 31 | – | – | – | Cc1nc(O)c2cc(-c3ccc4c(c3)OCO4)c(C(C)C)cc2n1 |
| > 1000 | – | – | – | Cc1nc(O)c2cc(-c3ccc(Cl)c(OCC(=O)O)c3)c(C(C)C)cc2n1 |
| 286 | – | – | – | CCOc1cc(-c2cc3c(=O)[nH]c(C)nc3cc2C(C)C)ccc1OC |
| 557 | – | – | – | Cc1nc(O)c2cc(-c3ccc(Cl)c(OCCO)c3)c(C(C)C)cc2n1 |
| 100 | 25 | 90 | 49 | CC(C)(C)c1nc2[nH]c(=S)[nH]c(=O)c2cc1-c1ccccc1 |
